Assay results: patent publication US6953779B2, “Melanocortin receptor antagonists and modulations of melanocortin receptor activity” (The Regents of the University of California, priority 1998, dated 2005)
Square brackets hold non-standard residues; d marks the D form. Peptide text beside a SMILES is read from it. * marks the point of attachment. d2Nal = N[C@H](Cc1ccc2ccccc2c1)C(=O)O; Benzoyl(3-OMe) = COc1cccc(C(=O)*)c1; Benzoyl(4-OMe) = COc1ccc(C(=O)*)cc1; d2Thi = N[C@H](Cc1cccs1)C(=O)O

Test system: heat-induced edema in the anesthetized rat's paw
Assay: Suppression of heat-induced edema in the anesthetized rat's paw (anti-inflammatory)
Assay type: in vivo
Details: i.v.; suppression of heat-induced edema in the anesthetized rat's paw

Structure (SMILES)	Anti-Inflammatory ED50
CC[C@H](C)[C@H](NC(=O)[C@@H](Cc1cccs1)NC(=O)[C@H](CC(C)C)NC(=O)[C@H](CC(C)C)NC(=O)[C@H](CCCCN)NC(=O)[C@H](C)NC(=O)c1ccc(OC)cc1)C(=O)N[C@H](CC(C)C)C(N)=O [S-118, p-anisoyl-Ala-Lys-Leu-Leu-D-Thi-Ile-D-Leu-NH2] ({Benzoyl(4-OMe)}-AKLL[d2Thi]I[dL]-NH2)	0.035 (0.012-0.10) mg/kg
CC[C@H](C)[C@H](NC(=O)[C@@H](Cc1cccs1)NC(=O)[C@H](CC(C)C)NC(=O)[C@H](CC(C)C)NC(=O)[C@H](CCCCN)NC(=O)[C@H](C)NC(=O)c1ccc(OC)cc1)C(=O)N[C@H](CC(C)C)C(N)=O [S-167, p-anisoyl-Ala-Lys-Leu-Leu-D-Thi-Ile-D-Leu-NH2] ({Benzoyl(4-OMe)}-AKLL[d2Thi]I[dL]-NH2)	>2 mg/kg
CC[C@H](C)[C@H](NC(=O)[C@@H](Cc1cccs1)NC(=O)[C@H](CC(C)C)NC(=O)[C@H](C)NC(=O)[C@H](CCCCN)NC(=O)[C@H](CCCNC(=N)N)NC(=O)c1ccc(OC)cc1)C(=O)N[C@H](CC(C)C)C(N)=O [S-160, p-anisoyl-Arg-Lys-Ala-Leu-D-Thi-Ile-D-Leu-NH2] ({Benzoyl(4-OMe)}-RKAL[d2Thi]I[dL]-NH2)	0.18 (0.07-0.49) mg/kg
CC[C@H](C)[C@H](NC(=O)[C@@H](Cc1c[nH]c2ccccc12)NC(=O)[C@H](CC(C)C)NC(=O)[C@H](CC(C)C)NC(=O)[C@H](CCCCN)NC(=O)[C@H](CCCNC(=N)N)NC(=O)c1ccc(OC)cc1)C(=O)N[C@H](CC(C)C)C(N)=O [S-117, p-anisoyl-Arg-Lys-Leu-Leu-D-Trp-Ile-D-Leu-NH2] ({Benzoyl(4-OMe)}-RKLL[dW]I[dL]-NH2)	0.16 (0.050-0.40) mg/kg
CC[C@H](C)[C@H](NC(=O)[C@@H](Cc1cccs1)NC(=O)[C@H](CC(C)C)NC(=O)[C@H](CC(C)C)NC(=O)[C@H](CCCCN)NC(=O)[C@H](CCCNC(=N)N)NC(=O)c1ccc(OC)cc1)C(=O)N[C@H](CC(C)C)C(N)=O [mystixin-7, p-anisoyl-Arg-Lys-Leu-Leu-D-Thi-Ile-D-Leu-NH2] ({Benzoyl(4-OMe)}-RKLL[d2Thi]I[dL]-NH2)	0.02 (0.014-0.059) mg/kg
CC[C@H](C)[C@H](NC(=O)[C@@H](C)NC(=O)[C@H](CC(C)C)NC(=O)[C@H](CC(C)C)NC(=O)[C@H](CCCCN)NC(=O)[C@H](CCCNC(=N)N)NC(=O)c1ccc(OC)cc1)C(=O)N[C@H](CC(C)C)C(N)=O [S-164, p-anisoyl-Arg-Lys-Leu-Leu-D-Ala-Ile-D-Leu-NH2] ({Benzoyl(4-OMe)}-RKLL[dA]I[dL]-NH2)	0.42 (0.18-0.96) mg/kg
CC[C@H](C)[C@H](NC(=O)[C@@H](Cc1cccs1)NC(=O)[C@H](CC(C)C)NC(=O)[C@H](CC(C)C)NC(=O)[C@H](CCCCN)NC(=O)[C@H](CCCNC(=N)N)NC(=O)c1ccc(OC)cc1)C(=O)N[C@H](C)C(N)=O [S-162, p-anisoyl-Arg-Lys-Leu-Leu-D-Thi-Ile-D-Ala-NH2] ({Benzoyl(4-OMe)}-RKLL[d2Thi]I[dA]-NH2)	0.24 (0.11-0.50) mg/kg
CC[C@H](C)[C@H](NC(=O)[C@@H](Cc1cccs1)NC(=O)[C@H](CC(C)C)NC(=O)[C@H](CC(C)C)NC(=O)[C@H](C)NC(=O)[C@H](CCCNC(=N)N)NC(=O)c1ccc(OC)cc1)C(=O)N[C@H](CC(C)C)C(N)=O [S-166, p-anisoyl-Arg-Ala-Leu-Leu-D-Thi-Ile-D-Leu-NH2] ({Benzoyl(4-OMe)}-RALL[d2Thi]I[dL]-NH2)	>2 mg/kg
COc1ccc(C(=O)N[C@@H](CCCNC(=N)N)C(=O)N[C@@H](CCCCN)C(=O)N[C@@H](CC(C)C)C(=O)N[C@@H](CC(C)C)C(=O)N[C@H](Cc2cccs2)C(=O)N[C@@H](C)C(=O)N[C@H](CC(C)C)C(N)=O)cc1 [S-163, p-anisoyl-Arg-Lys-Leu-Leu-D-Thi-Ala-D-Leu-NH2] ({Benzoyl(4-OMe)}-RKLL[d2Thi]A[dL]-NH2)	0.067 (0.030-0.15) mg/kg
CC[C@H](C)[C@H](NC(=O)[C@@H](Cc1ccc2ccccc2c1)NC(=O)[C@H](CC(C)C)NC(=O)[C@H](CC(C)C)NC(=O)[C@H](CCCCN)NC(=O)[C@H](CCCNC(=N)N)NC(=O)c1ccc(OC)cc1)C(=O)N[C@H](CC(C)C)C(N)=O [S-114, p-anisoyl-Arg-Lys-Leu-Leu-D-Nal-Ile-D-Leu-NH2] ({Benzoyl(4-OMe)}-RKLL[d2Nal]I[dL]-NH2)	0.38 (0.16-0.91) mg/kg
CC[C@H](C)[C@H](NC(=O)[C@@H](Cc1ccc(O)cc1)NC(=O)[C@H](CC(C)C)NC(=O)[C@H](CC(C)C)NC(=O)[C@H](CCCCN)NC(=O)[C@H](CCCNC(=N)N)NC(=O)c1ccc(OC)cc1)C(=O)N[C@H](CC(C)C)C(N)=O [S-116, p-anisoyl-Arg-Lys-Leu-Leu-D-Tyr-Ile-D-Leu-NH2] ({Benzoyl(4-OMe)}-RKLL[dY]I[dL]-NH2)	0.080 (0.03-0.20) mg/kg

Same assay, conditions: in words

Structure (SMILES)	anti-edema activity
CC[C@H](C)[C@H](NC(=O)[C@H](CCCNC(=N)N)NC(=O)[C@@H](CCCNC(=N)N)NC(=O)c1ccc(OC)cc1)C(=O)N[C@H](CCCNC(=N)N)C(=O)N1CCC[C@H]1C(=O)N[C@H](CCCCN)C(=O)N[C@H](CC(C)C)C(N)=O [SQW-5, p-anisoyl-[D-Arg^6,9, D-Lys^11, D-Leu^12] dynorphin A(6-12)-NH2] ({Benzoyl(4-OMe)}-[dR]RI[dR]P[dK][dL]-NH2)	active as anti-edema agents
CC[C@H](C)[C@H](NC(=O)[C@H](CCCNC(=N)N)NC(=O)[C@H](CCCNC(=N)N)NC(=O)c1cccc(OC)c1)C(=O)N[C@@H](CCCNC(=N)N)C(=O)N1CCC[C@H]1C(=O)N[C@@H](CCCCN)C(=O)N[C@@H](CC(C)C)C(N)=O [SQW-6, m-anisoyl-Arg-Arg-Ile-Arg-Pro-Lys-Leu-amide] ({Benzoyl(3-OMe)}-RRIRPKL-NH2)	active as anti-edema agents
CC[C@H](C)[C@H](NC(=O)[C@@H](CCCNC(=N)N)NC(=O)[C@@H](CCCNC(=N)N)NC(=O)c1ccc(OC)cc1)C(=O)N[C@H](CCCNC(=N)N)C(=O)N1CCC[C@H]1C(=O)N[C@H](CCCCN)C(=O)N[C@H](CC(C)C)C(N)=O [SQW-4, p-anisoyl-D-Arg-D-Arg-Ile-D-Arg-Pro-D-Lys-D-Leu-amide] ({Benzoyl(4-OMe)}-[dR][dR]I[dR]P[dK][dL]-NH2)	active as anti-edema agents

Same assay, conditions: suppression of heat-induced edema in the anesthetized rat's paw; i

Structure (SMILES)	Anti-Inflammatory ED50 [µmol/kg]
CC[C@H](C)[C@H](NC(=O)[C@H](CCCNC(=N)N)NC(=O)[C@@H](CCCNC(=N)N)NC(=O)c1ccc(OC)cc1)C(=O)N[C@H](CCCNC(=N)N)C(=O)N1CCC[C@H]1C(=O)N[C@H](CCCCN)C(=O)N[C@H](CC(C)C)C(N)=O [SQW-5, p-anisoyl-[D-Arg^6,9, D-Lys^11, D-Leu^12] dynorphin A(6-12)-NH2] ({Benzoyl(4-OMe)}-[dR]RI[dR]P[dK][dL]-NH2)	0.060
CC[C@H](C)[C@H](NC(=O)[C@H](CCCNC(=N)N)NC(=O)[C@H](CCCNC(=N)N)NC(=O)c1cccc(OC)c1)C(=O)N[C@@H](CCCNC(=N)N)C(=O)N1CCC[C@H]1C(=O)N[C@@H](CCCCN)C(=O)N[C@@H](C)C(N)=O [SQW-13, m-anisoyl-Arg-Arg-Ile-Arg-Pro-Lys-Ala-amide] ({Benzoyl(3-OMe)}-RRIRPKA-NH2)	2.39
CC[C@H](C)[C@H](NC(=O)[C@H](CCCNC(=N)N)NC(=O)[C@H](CCCNC(=N)N)NC(=O)c1cccc(OC)c1)C(=O)N[C@@H](C)C(=O)N1CCC[C@H]1C(=O)N[C@@H](CCCCN)C(=O)N[C@@H](CC(C)C)C(N)=O [SQW-10, m-anisoyl-Arg-Arg-Ile-Ala-Pro-Lys-Leu-amide] ({Benzoyl(3-OMe)}-RRIAPKL-NH2)	1.02
COc1cccc(C(=O)N[C@@H](CCCNC(=N)N)C(=O)N[C@@H](CCCNC(=N)N)C(=O)N[C@@H](C)C(=O)N[C@@H](CCCNC(=N)N)C(=O)N2CCC[C@H]2C(=O)N[C@@H](CCCCN)C(=O)N[C@@H](CC(C)C)C(N)=O)c1 [SQW-9, m-anisoyl-Arg-Arg-Ala-Arg-Pro-Lys-Leu-amide] ({Benzoyl(3-OMe)}-RRARPKL-NH2)	0.65
CC[C@H](C)[C@H](NC(=O)[C@H](CCCNC(=N)N)NC(=O)[C@H](CCCNC(=N)N)NC(=O)c1cccc(OC)c1)C(=O)N[C@@H](CCCNC(=N)N)C(=O)N1CCC[C@H]1C(=O)N[C@@H](CCCCN)C(=O)N[C@@H](CC(C)C)C(N)=O [SQW-6, m-anisoyl-Arg-Arg-Ile-Arg-Pro-Lys-Leu-amide] ({Benzoyl(3-OMe)}-RRIRPKL-NH2)	0.51
CC[C@H](C)[C@H](NC(=O)[C@H](CCCNC(=N)N)NC(=O)[C@H](CCCNC(=N)N)NC(=O)c1cccc(OC)c1)C(=O)N[C@@H](CCCNC(=N)N)C(=O)N[C@@H](C)C(=O)N[C@@H](CCCCN)C(=O)N[C@@H](CC(C)C)C(N)=O [SQW-11, m-anisoyl-Arg-Arg-Ile-Arg-Ala-Lys-Leu-amide] ({Benzoyl(3-OMe)}-RRIRAKL-NH2)	1.05
CC[C@H](C)[C@H](NC(=O)[C@@H](CCCNC(=N)N)NC(=O)[C@@H](CCCNC(=N)N)NC(=O)c1ccc(OC)cc1)C(=O)N[C@H](CCCNC(=N)N)C(=O)N1CCC[C@H]1C(=O)N[C@H](CCCCN)C(=O)N[C@H](CC(C)C)C(N)=O [SQW-4, p-anisoyl-D-Arg-D-Arg-Ile-D-Arg-Pro-D-Lys-D-Leu-amide] ({Benzoyl(4-OMe)}-[dR][dR]I[dR]P[dK][dL]-NH2)	0.200
CC[C@H](C)[C@H](NC(=O)[C@H](CCCNC(=N)N)NC(=O)[C@H](C)NC(=O)c1cccc(OC)c1)C(=O)N[C@@H](CCCNC(=N)N)C(=O)N1CCC[C@H]1C(=O)N[C@@H](CCCCN)C(=O)N[C@@H](CC(C)C)C(N)=O [SQW-7, m-anisoyl-Ala-Arg-Ile-Arg-Pro-Lys-Leu-amide] ({Benzoyl(3-OMe)}-ARIRPKL-NH2)	>1
CC[C@H](C)[C@H](NC(=O)[C@H](CCCNC(=N)N)NC(=O)[C@H](CCCNC(=N)N)NC(=O)c1cccc(OC)c1)C(=O)N[C@@H](CCCNC(=N)N)C(=O)N1CCC[C@H]1C(=O)N[C@@H](C)C(=O)N[C@@H](CC(C)C)C(N)=O [SQW-12, m-anisoyl-Arg-Arg-Ile-Arg-Pro-Ala-Leu-amide] ({Benzoyl(3-OMe)}-RRIRPAL-NH2)	0.98
CC[C@H](C)[C@H](NC(=O)[C@H](C)NC(=O)[C@H](CCCNC(=N)N)NC(=O)c1cccc(OC)c1)C(=O)N[C@@H](CCCNC(=N)N)C(=O)N1CCC[C@H]1C(=O)N[C@@H](CCCCN)C(=O)N[C@@H](CC(C)C)C(N)=O [SQW-8, m-anisoyl-Arg-Ala-Ile-Arg-Pro-Lys-Leu-amide] ({Benzoyl(3-OMe)}-RAIRPKL-NH2)	>1
CC[C@H](C)[C@H](NC(=O)[C@H](CCCNC(=N)N)NC(=O)[C@H](CCCNC(=N)N)NC(=O)c1ccc(OC)cc1)C(=O)N[C@H](CCCNC(=N)N)C(=O)N1CCC[C@H]1C(=O)N[C@H](CCCCN)C(=O)N[C@H](CC(C)C)C(N)=O [SQW-2, p-anisoyl-Arg-Arg-Ile-D-Arg-Pro-D-Lys-D-Leu-amide] ({Benzoyl(4-OMe)}-RRI[dR]P[dK][dL]-NH2)	0.085
CC[C@H](C)[C@H](NC(=O)[C@@H](CCCNC(=N)N)NC(=O)[C@H](CCCNC(=N)N)NC(=O)c1ccc(OC)cc1)C(=O)N[C@H](CCCNC(=N)N)C(=O)N1CCC[C@H]1C(=O)N[C@H](CCCCN)C(=O)N[C@H](CC(C)C)C(N)=O [SQW-3, p-anisoyl-Arg-D-Arg-Ile-D-Arg-Pro-D-Lys-D-Leu-amide] ({Benzoyl(4-OMe)}-R[dR]I[dR]P[dK][dL]-NH2)	0.095
